In US20180216057A1, “SYSTEM AND METHOD FOR GENERATING BIOLOGICAL TISSUE” (Yale University, priority 2017, published 2018):

Tests used:
[1] = tested on: EHTs from neonatal rat ventricular myocytes (NRVMs) seeded into laser-cut decellularized porcine myocardium; experiment: Twitch stress and kinetics of NRVM engineered heart tissues cultured with thyroid hormone T3; format: cell-based
Procedure: (§1) To determine twitch force development and kinetics, EHTs were measured as early as 5 days after seeding. Clips holding the EHT were ejected from the frame and picked up by motorized micromanipulators with claw-like extensions, leaving the muscle suspended between an anchoring attachment claw on one end and a force transducer mounted to a second claw on the other (FIG. 5D). The EHT was immersed in a temperature-controlled perfusion bath equipped with electrodes for field stimulus. Throughout measurements, scaffolds were perfused with freshly oxygenated Tyrode's solution (in mM: NaCl 140, KCl5.4, MgCl2 1, HEPES 25, glucose 10, and CaCl 1.8; pH adjusted to 7.35). Used Tyrode's solution was collected in a sealed chamber during testing and checked to ensure adequate consistency of pH. The maximum fluctuation never exceeded 0.05 pH units. All measurements were performed at 35° C. During biomechanical testing, NRVM-EHTs were electrically paced (12 V, 10 ms pulse width at 0.5 Hz) and the resulting twitch force was recorded (FIG. 5E). Human EHTs were paced at 1 Hz. Intracellular calcium concentrations were measured in some constructs using the ratiometric fluorescent indicator Fura-2 AM.
During mechanical testing, EHTs were stretched until reaching their culture length (6 mm) and again after applying 0.1 mm incremental increases until reaching a length of 6.6 mm (representing 10% total stretch). Ten contraction events were recorded and averaged at each level of stretch. The peak stress (mN/mm^2) was computed offline by dividing measured force by the cross-sectional area of the EHT. Characteristics of contraction kinetics were also computed offline, including the time to peak stress (TTP) and time from peak stress to 50% relaxation (RT50). The length-stress gain during isometric stretch (slope of the stretch-peak stress relationship, FIG. 13C) was calculated for each scaffold using engineering strain as the unit for stretch. The force-frequency relationship was determined while keeping EHTs at 10% stretch and taking records at 0.5, 1, 2, 4, 6, and 8 Hz. During force-frequency measurements, pacing capture of EHTs was ensured by checking real time oscilloscope readings of the force transducer voltage output.
Thyroid hormone speeds contractile kinetics. To assess the sensitivity of this system towards changes in contractility and twitch kinetics, EHTs were subjected to a pharmacological perturbation known to alter the intrinsic properties of cardiac muscle. In rodents, an increase in thyroid hormone (T3) promotes expression of the faster α isoform of myosin heavy chain23. […] EHTs were characterized functionally and then returned to culture conditions at days 5, 8, 12, and 15.

hiPSC-CM EHTs = experiment: Inotropic/lusitropic response of hiPSC-CM EHTs to β-adrenergic agonist; format: cell-based, human; settings: 100 nM isoproterenol, 8% stretch, 30 minutes equilibration, vs baseline
Procedure: as §1, with “AM. Inotropic response. […] Tissues were equilibrated in Tyorde's solution for 30 minutes and measured at 8% stretch. […]” for “AM.”

[2] = 15 days old NRVM EHTs after T3 treatment, 2 Hz pacing

Row | Compound | RT50 [1, 2] | TTP [1, 2] | time to peak stress (TTP) ([1]; NRVM EHTs, T3 10 ng/ml in culture, after 15 days in culture, untreated 113±6 ms) | time from peak stress to 50% relaxation (RT50) ([1]; NRVM EHTs, T3 10 ng/ml in culture, after 15 days in culture, untreated 130±3 ms) | effect on evolution of peak stress development across time points ([1]; T3 10 ng/ml, days 5, 8, 12, 15, 2-way repeated measures ANOVA) | effect on rates of contraction and relaxation vs non-treated control ([1]; T3 10 ng/ml, every time point analyzed (days 5, 8, 12, 15), p<0.001) | lusitropic response (twitch kinetics TTP and RT50) (hiPSC-CM EHTs)
1 | N[C@@H](Cc1cc(I)c(Oc2ccc(O)c(I)c2)c(I)c1)C(=O)O [T3] | around 59 ms | 83 ms | 77 ± 2 ms | 63 ± 3 ms | no significant effect | significantly accelerated rates of contraction and relaxation | –
2 | CC(C)NCC(O)c1ccc(O)c(O)c1 (stereo not shown) [Isoproterenol] | – | – | – | – | – | – | shorter TTP and RT50
